Patent US9693556B2, “Herbicidal pyridazinone derivatives” (SYNGENTA LIMITED, priority 2011, dated 2017)

Tests used:
Assay type in all cases: in vivo
[1] = system: Alopecurus myosuroides (ALOMY); assay: Pre-emergence herbicidal glasshouse test on Alopecurus myosuroides; settings: pre-emergence, 1000 g/h, evaluated after 13 days
Outline: (§1)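 Steps: sow seeds in standard soil; cultivate 1 d (pre-) or 8 d (post-emergence) at 24/16 °C, 14 h light, 65% humidity; spray 1000 g/h in acetone/water plus Tween 20; grow on, watering twice daily; score percentage damage after 13 d.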

[2] = system: Setaria faberi (SETFA); assay: Pre-emergence herbicidal glasshouse test on Setaria faberi; settings: pre-emergence, 1000 g/h, evaluated after 13 days
Outline: as §1

[3] = system: Echinochloa crus-galli (ECHCG); assay: Pre-emergence herbicidal glasshouse test on Echinochloa crus-galli; settings: pre-emergence, 1000 g/h, evaluated after 13 days
Outline: as §1

[4] = system: Solanum nigrum (SOLNI); assay: Pre-emergence herbicidal glasshouse test on Solanum nigrum; settings: pre-emergence, 1000 g/h, evaluated after 13 days
Outline: as §1

[5] = system: Amaranthus retoflexus (AMARE); assay: Pre-emergence herbicidal glasshouse test on Amaranthus retoflexus; settings: pre-emergence, 1000 g/h, evaluated after 13 days
Outline: as §1

[6] = system: Ipomoea hederacea (IPOHE); assay: Pre-emergence herbicidal glasshouse test on Ipomoea hederacea; settings: pre-emergence, 1000 g/h, evaluated after 13 days
Outline: as §1

[7] = system: Alopecurus myosuroides (ALOMY); assay: Post-emergence herbicidal glasshouse test on Alopecurus myosuroides; settings: post-emergence, 1000 g/h, evaluated after 13 days
Outline: as §1

[8] = system: Setaria faberi (SETFA); assay: Post-emergence herbicidal glasshouse test on Setaria faberi; settings: post-emergence, 1000 g/h, evaluated after 13 days
Outline: as §1

[9] = system: Echinochloa crus-galli (ECHCG); assay: Post-emergence herbicidal glasshouse test on Echinochloa crus-galli; settings: post-emergence, 1000 g/h, evaluated after 13 days
Outline: as §1

[10] = system: Solanum nigrum (SOLNI); assay: Post-emergence herbicidal glasshouse test on Solanum nigrum; settings: post-emergence, 1000 g/h, evaluated after 13 days
Outline: as §1

[11] = system: Amaranthus retoflexus (AMARE); assay: Post-emergence herbicidal glasshouse test on Amaranthus retoflexus; settings: post-emergence, 1000 g/h, evaluated after 13 days
Outline: as §1

[12] = system: Ipomoea hederacea (IPOHE); assay: Post-emergence herbicidal glasshouse test on Ipomoea hederacea; settings: post-emergence, 1000 g/h, evaluated after 13 days
Outline: as §1

SMILES	PRE Application ALOMY herbicidal damage (five point scale) [1]	PRE Application SETFA herbicidal damage (five point scale) [2]	PRE Application ECHCG herbicidal damage (five point scale) [3]	PRE Application SOLNI herbicidal damage (five point scale) [4]	PRE Application AMARE herbicidal damage (five point scale) [5]	PRE Application IPOHE herbicidal damage (five point scale) [6]	POST Application ALOMY herbicidal damage (five point scale) [7]	POST Application SETFA herbicidal damage (five point scale) [8]	POST Application ECHCG herbicidal damage (five point scale) [9]	POST Application SOLNI herbicidal damage (five point scale) [10]	POST Application AMARE herbicidal damage (five point scale) [11]	POST Application IPOHE herbicidal damage (five point scale) [12]	other results
Cn1ncc(-n2ccc(C(F)(F)F)c(-c3cc(F)c(F)c(F)c3)c2=O)c(O)c1=O [Compound 7.017]	5 (5=80-100% damage)	5 (5=80-100% damage)	5 (5=80-100% damage)	5 (5=80-100% damage)	5 (5=80-100% damage)	4 (4=60-79% damage)	5 (5=80-100% damage)	5 (5=80-100% damage)	5 (5=80-100% damage)	5 (5=80-100% damage)	5 (5=80-100% damage)	5 (5=80-100% damage)	
CN(Cc1nc(C(F)(F)F)ccc1-c1cnn(C)c(=O)c1O)S(C)(=O)=O [Compound 1.040]	5 (5=80-100% damage)	5 (5=80-100% damage)	5 (5=80-100% damage)	5 (5=80-100% damage)	5 (5=80-100% damage)	4 (4=60-79% damage)	4 (4=60-79% damage)	5 (5=80-100% damage)	5 (5=80-100% damage)	5 (5=80-100% damage)	5 (5=80-100% damage)	5 (5=80-100% damage)	
Cn1ncc(-c2ccc(S(C)(=O)=O)c3c2COC3)c(O)c1=O [Compound 1.030]	1 (1=0-19% damage)	1 (1=0-19% damage)	2 (2=20-39% damage)	4 (4=60-79% damage)	5 (5=80-100% damage)	1 (1=0-19% damage)	1 (1=0-19% damage)	2 (2=20-39% damage)	4 (4=60-79% damage)	5 (5=80-100% damage)	5 (5=80-100% damage)	3 (3=40-59% damage)	
CN(C)c1nc(C(F)(F)F)ccc1-c1cnn(C)c(=O)c1O [Compound 1.134]	1 (1=0-19% damage)	1 (1=0-19% damage)	1 (1=0-19% damage)	5 (5=80-100% damage)	5 (5=80-100% damage)	2 (2=20-39% damage)	1 (1=0-19% damage)	2 (2=20-39% damage)	2 (2=20-39% damage)	5 (5=80-100% damage)	5 (5=80-100% damage)	5 (5=80-100% damage)	
Cc1ccc(-c2cnn(C)c(=O)c2O)c(Cl)c1 [Compound 1.098]	1 (1=0-19% damage)	1 (1=0-19% damage)	1 (1=0-19% damage)	1 (1=0-19% damage)	1 (1=0-19% damage)	1 (1=0-19% damage)	1 (1=0-19% damage)	1 (1=0-19% damage)	1 (1=0-19% damage)	3 (3=40-59% damage)	2 (2=20-39% damage)	2 (2=20-39% damage)	
Cn1ncc(-n2ccc(C(F)(F)F)c(-c3ccc(C(F)(F)F)cc3)c2=O)c(O)c1=O [Compound 7.035]	5 (5=80-100% damage)	5 (5=80-100% damage)	5 (5=80-100% damage)	5 (5=80-100% damage)	5 (5=80-100% damage)	3 (3=40-59% damage)	5 (5=80-100% damage)	5 (5=80-100% damage)	5 (5=80-100% damage)	5 (5=80-100% damage)	5 (5=80-100% damage)	4 (4=60-79% damage)	
CC(C)S(=O)(=O)c1ccccc1-c1cnn(C)c(=O)c1O [Compound 1.044]	5 (5=80-100% damage)	5 (5=80-100% damage)	5 (5=80-100% damage)	5 (5=80-100% damage)	5 (5=80-100% damage)	1 (1=0-19% damage)	5 (5=80-100% damage)	5 (5=80-100% damage)	5 (5=80-100% damage)	5 (5=80-100% damage)	5 (5=80-100% damage)	5 (5=80-100% damage)	
Cn1ncc(-c2cc3cc(N4CCOCC4)cnc3nc2C(F)(F)F)c(O)c1=O [Compound 1.164]													herbicidal damage, PRE Application ALOMY ([1]; five point scale): 1 (1=0-19% damage); herbicidal damage, PRE Application SETFA ([2]; five point scale): 2 (2=20-39% damage); herbicidal damage, PRE Application ECHCG ([3]; five point scale): 4 (4=60-79% damage); herbicidal damage, PRE Application SOLNI ([4]; five point scale): 2 (2=20-39% damage); herbicidal damage, PRE Application AMARE ([5]; five point scale): 3 (3=40-59% damage); herbicidal damage, PRE Application IPOHE ([6]; five point scale): 4 (4=60-79% damage); herbicidal damage, POST Application ALOMY ([7]; five point scale): 1 (1=0-19% damage); herbicidal damage, POST Application SETFA ([8]; five point scale): 5 (5=80-100% damage); herbicidal damage, POST Application ECHCG ([9]; five point scale): 5 (5=80-100% damage); herbicidal damage, POST Application SOLNI ([10]; five point scale): 5 (5=80-100% damage); herbicidal damage, POST Application AMARE ([11]; five point scale): 5 (5=80-100% damage); herbicidal damage, POST Application IPOHE ([12]; five point scale): 5 (5=80-100% damage)
Cn1ncc(-c2ccc(C(F)(F)F)cc2[N+](=O)[O-])c(O)c1=O [Compound 1.110]	1 (1=0-19% damage)	1 (1=0-19% damage)	1 (1=0-19% damage)	1 (1=0-19% damage)	5 (5=80-100% damage)	1 (1=0-19% damage)	1 (1=0-19% damage)	1 (1=0-19% damage)	3 (3=40-59% damage)	5 (5=80-100% damage)	5 (5=80-100% damage)	5 (5=80-100% damage)	
Cn1ncc(-c2cccc3ccccc23)c(O)c1=O [Compound 1.095]	1 (1=0-19% damage)	1 (1=0-19% damage)	1 (1=0-19% damage)	1 (1=0-19% damage)	1 (1=0-19% damage)	1 (1=0-19% damage)	1 (1=0-19% damage)	1 (1=0-19% damage)	1 (1=0-19% damage)	1 (1=0-19% damage)	1 (1=0-19% damage)	1 (1=0-19% damage)	
